Measured values from US20050220906A1, “Pharmaceutical composition for treating rheumatism and the preparation thereof” (priority 2002, published 2005).

Legend:
Settings in all cases: 0.02 g/kg, 10 days
TNF α = TNF α level of cultured cells from dosed mice; type: in vivo, ICR mice
Experimental: (§1) 60 ICR mice, 1822 g, half male and half female, were divided into 6 groups at random. Each group was drenched of the correspondent medicines including the different dosages of Fengshiping and the other medicines. The medicines were administrated once a day for 10 days. 24 hours after the last administration, the mice were sampled the macrophage and spleen cells from the abdominal cavity in the aseptic condition. The samples were washed with Hank's liquor for 2 times and non-serum RPIM 1640 liquor for 1 time. Then the washed samples were diluted to the suspension with the 5% FCS-RPMI 1640 at the concentration of 2×10^8/ml. Then the suspensions were added with 10 ng/ml LPS or the 10 ng/ml ConA and cultured in the 5% CO2 condition for 48 hours at 37° C. Then the cultured suspension were measured the TNF α and IL-2 levels on the usual methods.
The batten was coated by mouse TNF-α monoclonal antibody. The batten was added with the cultured supernate on the dose of 50 μl/hole. Then the batten was put still for 60 minutes at the room temperature. Then the batten was added with biotin antibody mark at 25° C. for 2 hours. Then the enzyme labeled avidin was added into the batten for 30 minutes. […] The mixed liquor was measured the OD value at the wavelength of the 450 nm. The content of the TNF-α (ng/ml) was calculated on the data of OD value by the method of standard curve.

IL-6 = IL-6 of spleen cells from dosed mice (MH60 cells); type: in vivo, NIH mice
Experimental: 70 NIH mice, 18-22 g weight, half male and half female, were divided into 7 groups at random. All the groups were drenched with the correspondent medicines (fengshiping and the other medicines). The medicines were drenched once a day for 10 days. 24 hours after the last administration, all the mice were killed and sampled the macrophage and spleen cells from the abdominal carvity. The IL-1 and IL-6 in the samples were measured.
The spleen cells were sampled in the asepsis condition. Then the samples were washed by the Hank's liquor for 2 times and nonserum RPMI1640 liquor for 1 time. Then the clear samples were adjusted to the 2×10^6/ml cell suspension with 5% FCS-RPMI liquor. 1 ml of the suspension was added to the round-bottom centrifuge tube. After adding the ConA (10 ng/ml), the samples were cultured in the 5% CO2 at 37° C. for 72 hour.
The MH60 cells, which grew depending on the IL-6 and were on the logarithmic growth stage, were adjusted to the 1×10^5/ml cell suspension with the 5% FC-RPMI1640.
The 96-hole flat bottom cell culturing batten was added with the MH60 cell suspension on the quantity of 100 μl/hole and the culturing supernate 25 μl/hole. Then the fluid in each hole was adjusted to the 200 μl with the 5% FCS-RPMI 1640. […] And then they were measured the OD at the wavelength 570 nm and 630 nm. […]

IL-2 = IL-2 level of cultured cells from dosed mice (CTLL cells); type: in vivo, ICR mice
Experimental: as §1
The CTLL cells which was on the logarithmic growth phase and whose growth depends on the IL-2, were adjusted to the suspension at the concentration of 1×10^5/ml with the 5% FCS-RPMI 1640. Then the 96 hole cell culturing batten were added with the CTLL cell suspension on the quantity of 100 μl/hole. The supernates were added on the quantity of 100 μl/hole and each sample was added to 3 holes. […] The samples were cultured for 3 hours at 37° C., and then measured the OD at the wavelength 570 nm and 630 nm. […]

`O=P1(N(CCCl)CCCl)NCCCO1` (stereo not drawn) [cyclophosphane] showed a TNF (TNF α) of 42.20 ± 9.57 pg/mL, an IL-6 (IL-6) of 49.6 ± 6.7 IU/ml and an IL-2 (IL-2) of 10.10 ± 3.00 IU/ml.
